In data set [1] the target is T1, α-amylase from Aspergillus oryzae (Aspergillus oryzae, UniProt P0C1B3).
T1 construct: purchased Sigma Aldrich
Nature of the data set: biochemical. The settings on record: for α-Amylase Selectivity: IC50 (α-glucosidase)/IC50 (α-amylase). Here is the method:
Briefly, 250 μL (0.4 mg/mL) of sample was preincubated with 250 μL of α-amylase solution for 10 min at 25 °C in one set of tubes. In another set of tubes α-amylase was preincubated with 250 μL of phosphate buffer (pH 6.9). 250 μL of starch solution at increasing concentrations (0.2–1% (w/v)) was added to both sets of reaction mixtures to start the reaction. The mixture was then incubated for 10 min at 25 °C and then boiled for 15 min after the addition of 250 μL of DNS to stop the reaction. The amount of reducing sugars released was determined spectrophotometrically using a maltose standard curve and converted to reaction velocities.
(§1) The inhibitory concentration 50% (IC50) values were determined from the plots of percent inhibition versus log inhibitor concentration and calculated by logarithmic regression analysis from the mean inhibitory values.

In data set [2] the target is T2, α-Glucosidase type 1 from baker’s yeast (Saccharomyces cerevisiae, UniProt P53341).
T2 construct: purchased Sigma-Aldrich G5003
T2 sequence (P53341 whole entry): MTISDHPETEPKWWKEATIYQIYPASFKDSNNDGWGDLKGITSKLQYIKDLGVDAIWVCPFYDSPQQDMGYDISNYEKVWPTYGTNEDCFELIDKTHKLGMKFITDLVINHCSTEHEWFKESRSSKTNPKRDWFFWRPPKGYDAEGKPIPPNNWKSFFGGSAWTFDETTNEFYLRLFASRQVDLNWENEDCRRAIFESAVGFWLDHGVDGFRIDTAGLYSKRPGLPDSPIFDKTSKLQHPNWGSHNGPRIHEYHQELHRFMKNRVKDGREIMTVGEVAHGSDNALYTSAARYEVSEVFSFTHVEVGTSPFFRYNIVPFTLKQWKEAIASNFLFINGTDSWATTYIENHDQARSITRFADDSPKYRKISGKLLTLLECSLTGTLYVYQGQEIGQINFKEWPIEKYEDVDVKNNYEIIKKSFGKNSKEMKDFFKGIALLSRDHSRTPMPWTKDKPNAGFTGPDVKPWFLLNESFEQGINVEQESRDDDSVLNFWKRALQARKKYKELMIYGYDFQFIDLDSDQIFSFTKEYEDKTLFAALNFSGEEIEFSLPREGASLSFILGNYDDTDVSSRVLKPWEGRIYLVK
Nature of the data set: α-Glucosidase inhibition assay (p-nitrophenyl α-D-glucopyranoside, 405 nm). Format: biochemical. The settings on record: for α-Glucosidase Selectivity: IC50 (α-amylase)/IC50 (α-glucosidase). Here is the method:
Sodium phosphate buffer (0.1 M) was adjusted by 0.1 N HCl to pH 7.0 with a pH meter (Thermo Fisher Scientific Inc., Waltham, MA, USA). p-Nitrophenyl α-D-glucopyranoside (10 mM) and α-glucosidase solutions (1 U/mL) were solubilized in 0.1 M sodium phosphate buffer (pH 7.0). All the reagents were manufactured shortly before use and warmed to 37 °C in a water bath. Sodium phosphate buffer (0.1 M, 158 μL per well) was added to a 96-well plate. α-Glucosidase (20 μL) and 2 μL of sample were added to 20 μL of p-nitrophenyl α-D-glucopyranoside. In the 200-μL final reaction volume (0.02 U/well, 0.1 U/mL) the substrate concentration was adjusted to […]. The background signal due to the sample color was measured at 405 nm with the PerkinElmer Wallac Victor3 spectrophotometer (PerkinElmer, Waltham, MA, USA) prior to adding the enzyme. Immediately following α-glucosidase addition, absorbance was measured at 405 nm 8 times at 1 min intervals.
as §1

The values that follow come from paper PMC6630796, “Spiroindolone Analogues as Potential Hypoglycemic with Dual Inhibitory Activity on α-Amylase and α-Glucosidase” (Molecules, 2019).

With `O=C(c1ccccc1)C1C(c2cc3ccccc3o2)C2CSCN2[C@@]12C(=O)Nc1ccc(Cl)cc12` (stereo partly drawn) [Compound 5a, (3S)-7′-(Benzofuran-2-yl)-6′-benzoyl-5-chloro-1′,6′,7′,7a′-tetrahydro-3′H-spiro[indoline-3,5′-pyrrolo[1,2-c]thiazol]-2-one], the melting point is 132 to 133 °C. For the same compound, in data set [1], the IC50 turned out to be 693.22 ± 0.1 µM and the “α-Amylase Selectivity” value was 0.67. Moreover, in data set [2], the IC50 was determined as 465.12 ± 0.12 µM and the “α-Glucosidase Selectivity” value amounted to 1.49.
Regarding `O=C(c1ccccc1)C1C(c2cc3ccccc3o2)C2C3CCCCC3CN2[C@@]12C(=O)Nc1ccc(Cl)cc12` (stereo partly drawn) [Compound 5b, (3S)-1′-(Benzofuran-2-yl)-2′-benzoyl-5-chloro-1′,2′,5′,5a′,6′,7′,8′,9′,9a′,9b′-decahydrospiro[indoline-3,3′-pyrrolo[2,1-a]isoindol]-2-one], the melting point lay within 120 to 122 °C.
As to `O=C(c1ccc(F)cc1)C1C(c2cc3ccccc3o2)C2CSCN2[C@@]12C(=O)Nc1ccc(Cl)cc12` (stereo partly drawn) [Compound 5c, (3S)-7′-(Benzofuran-2-yl)-5-chloro-6′-(4-fluorobenzoyl)-1′,6′,7′,7a′-tetrahydro-3′H-spiro[indoline-3,5′-pyrrolo[1,2-c]thiazol]-2-one], the melting point lay within 110 to 112 °C. Moreover, in data set [1], the IC50 amounted to 718 ± 0.27 µM and the “α-Amylase Selectivity” value was determined as 0.81. In data set [2], half-maximal inhibition (IC50) was put at 585.11 ± 0.02 µM and the “α-Glucosidase Selectivity” value is reported as 1.22.
The compound `O=C(c1ccc(F)cc1)C1C(c2cc3ccccc3o2)C2C3CCCCC3CN2[C@@]12C(=O)Nc1ccc(Cl)cc12` (stereo partly drawn) [Compound 5d, (3S)-1′-(benzofuran-2-yl)-5-chloro-2′-(4-fluorobenzoyl)-1′,2′,5′,5a′,6′,7′,8′,9′,9a′,9b′-decahydrospiro-[indoline-3,3′-pyrrolo[2,1-a]isoindol]-2-one] had a melting point of 125 to 127 °C.
`O=C(c1ccc(F)cc1)C1C(c2cc3ccccc3o2)C2C3CCCCC3CN2[C@@]12C(=O)Nc1ccc(Br)cc12` (stereo partly drawn) [Compound 5e, (3S)-1′-(Benzofuran-2-yl)-5-bromo-2′-(4-fluorobenzoyl)-1′,2′,5′,5a′,6′,7′,8′,9′,9a′,9b′-decahydrospiro-[indoline-3,3′-pyrrolo[2,1-a]isoindol]-2-one] gave a melting point of 125 to 127 °C.
With `O=C(c1ccc(Br)cc1)C1C(c2cc3ccccc3o2)C2C3CCCCC3CN2[C@@]12C(=O)Nc1ccc(Cl)cc12` (stereo partly drawn) [Compound 5f, (3S)-1′-(Benzofuran-2-yl)-2′-(4-bromobenzoyl)-5-chloro-1′,2′,5′,5a′,6′,7′,8′,9′,9a′,9b′-decahydrospiro-[indoline-3,3′-pyrrolo[2,1-a]isoindol]-2-one], the melting point is 120 to 121 °C.
Compound `O=C(c1ccc(Br)cc1)C1C(c2cc3ccccc3o2)C2CSCN2[C@@]12C(=O)Nc1ccc(Br)cc12` (stereo partly drawn) [Compound 5h, (3S)-7′-(Benzofuran-2-yl)-5-bromo-6′-(4-bromobenzoyl)-1′,6′,7′,7a′-tetrahydro-3′H-spiro[indoline-3,5′-pyrrolo[1,2-c]thiazol]-2-one] came in with a melting point of 118 to 120 °C. In data set [1], the IC50 amounted to 589.04 ± 0.25 µM and the “α-Amylase Selectivity” value was 0.83. For the same compound, in data set [2], it took 494.1 ± 0.04 µM to reach half-maximal inhibition (IC50) and the “α-Glucosidase Selectivity” value is given as 1.19.
In the case of `O=C(c1ccc(Br)cc1)C1C(c2cc3ccccc3o2)C2CSCN2[C@@]12C(=O)Nc1ccc(Cl)cc12` (stereo partly drawn) [Compound 5i, (3S)-7′-(Benzofuran-2-yl)-6′-(4-bromobenzoyl)-5-chloro-1′,6′,7′,7a′-tetrahydro-3′H-spiro[indoline-3,5′-pyrrolo[1,2-c]thiazol]-2-one], the melting point was 144 to 145 °C. Besides, in data set [1], the IC50 was 779.08 ± 0.51 µM and the “α-Amylase Selectivity” value worked out at 0.87. In addition, in data set [2], the midpoint of inhibition, the IC50, lay at 684.12 ± 0.35 µM and the “α-Glucosidase Selectivity” value came out at 1.13.
Take `O=C(c1ccc(C(F)(F)F)cc1)C1C(c2cc3ccccc3o2)C2CSCN2[C@@]12C(=O)Nc1ccc(Cl)cc12` (stereo partly drawn) [Compound 5l, (3S)-7′-(Benzofuran-2-yl)-5-chloro-6′-(4-(trifluoromethyl)benzoyl)-1′,6′,7′,7a′-tetrahydro-3′H-spiro-[indoline-3,5′-pyrrolo[1,2-c]thiazol]-2-one]: the melting point is 110 to 112 °C. Also, in data set [1], the IC50 amounted to 558.07 ± 0.18 µM and the “α-Amylase Selectivity” value was determined as 0.74. Also, in data set [2], the IC50 worked out at 414.1 ± 0.52 µM.
`O=C(c1ccc(F)cc1)C1C(c2cc3ccccc3o2)C2C3CCCCC3CN2[C@@]12C(=O)Nc1ccccc12` (stereo partly drawn) [Compound 5m, (3S)-1′-(Benzofuran-2-yl)-2′-(4-fluorobenzoyl)-1′,2′,5′,5a′,6′,7′,8′,9′,9a′,9b′-decahydrospiro[indoline-3,3′-pyrrolo[2,1-a]isoindol]-2-one] came in with a melting point of 137 to 138 °C.
The same measure, in the same setting: next, `O=C(c1ccc(Br)cc1)C1C(c2cc3ccccc3o2)C2C3CCCCC3CN2[C@@]12C(=O)Nc1ccccc12` (stereo partly drawn) [Compound 5n, (3S)-1′-(Benzofuran-2-yl)-2′-(4-bromobenzoyl)-1′,2′,5′,5a′,6′,7′,8′,9′,9a′,9b′-decahydrospiro[indoline-3,3′-pyrrolo[2,1-a]isoindol]-2-one]: 118 to 120 °C; `O=C(c1ccc(Cl)cc1)C1C(c2cc3ccccc3o2)C2C3CCCCC3CN2[C@@]12C(=O)Nc1ccc(Cl)cc12` (stereo partly drawn) [Compound 5o, (3S)-1′-(Benzofuran-2-yl)-5-chloro-2′-(4-chlorobenzoyl)-1′,2′,5′,5a′,6′,7′,8′,9′,9a′,9b′-decahydrospiro-[indoline-3,3′-pyrrolo[2,1-a]isoindol]-2-one]: 125 to 126 °C.
With `O=C(c1ccc(Cl)cc1)C1C(c2cc3ccccc3o2)C2CSCN2[C@@]12C(=O)Nc1ccc(Cl)cc12` (stereo partly drawn) [Compound 5p, (3S)-7′-(Benzofuran-2-yl)-5-chloro-6′-(4-chlorobenzoyl)-1′,6′,7′,7a′-tetrahydro-3′H-spiro[indoline-3,5′-pyrrolo[1,2-c]thiazol]-2-one], the melting point is 105 to 106 °C. In data set [1], the midpoint of inhibition, the IC50, lay at 488 ± 1.11 µM and the “α-Amylase Selectivity” value turned out to be 0.80. Besides, in data set [2], the IC50 was 392.1 ± 1.07 µM and the “α-Glucosidase Selectivity” value came out at 1.24.

As usually defined, the melting point is the temperature of the solid-liquid transition. By IC50 is commonly meant the concentration that gives 50% inhibition. Lower therefore signals inhibition by little substance.
